Data published in patent US9101567B2, “Suppression of cancer growth and metastasis using nordihydroguaiaretic acid derivatives with 7-hydroxystaurosporine” (The Johns Hopkins University, priority 2010, dated 2015).

Tests used:
[1] = tested on: caspase-7; assay: Western blotting of caspase-7 cleavage in MCF-7 cells; type: cell-based, human; details: MCF-7, 17 hrs; M4N 80 μM, etoposide 20 μM, rapamycin 20 μM, UCN-01 5 μM
Protocol: The sample volumes were adjusted by the total protein amount. Protein assay was performed by Bio-Rad Protein Assay (Bio-Rad Laboratories, Inc. Hercules, Calif.). The samples were resolved by the standard SDS-polyacrylamide gel electrophoresis and transferred to nitrocellulose membrane (Amersham Biosciences, Bjorkgatan, Sweden). The membranes were blocked with skim milk, and incubated with primary antibodies at 4° C. overnight and then with secondary antibody conjugated with horse radish peroxidase at room temperature for 2 hrs. The signals were detected by western blot chemiluminescence reagent plus (New England Nuclear Life Science Products, Boston, Mass.).
The effect of the combination treatments on cell death and autophagy was examined in two cell lines other than LNCaP cells.

[2] = tested on: caspase-3 or 9; assay: Western blotting of caspase-3 and 9 cleavage in HepG2 cells; type: cell-based, human; details: HepG2, 17 hrs; M4N 80 μM, UCN-01 5 μM
Protocol: After cells had been grown in […] flasks and treated with reagents, the cells were washed with PBS (−) three times and suspended in RIPA buffer (150 mM NaCl, 50 mM Tris-HCl (pH 8.0), 0.1% SDS, 1% NP40, and 0.5% deoxycholate) supplemented with protease inhibitor cocktail (Calbiochem, San Diego, Calif.). The sample volumes were adjusted by the total protein amount. Protein assay was performed by Bio-Rad Protein Assay (Bio-Rad Laboratories, Inc. Hercules, Calif.). The samples were resolved by the standard SDS-polyacrylamide gel electrophoresis and transferred to nitrocellulose membrane (Amersham Biosciences, Bjorkgatan, Sweden). […] The signals were detected by western blot chemiluminescence reagent plus (New England Nuclear Life Science Products, Boston, Mass.).
The effect of the combination treatments on cell death and autophagy was examined in two cell lines other than LNCaP cells. […] On the contrary caspase-7 cleavage was detected in MCF-7 cells treated with UCN-01 treatment alone, the combination treatments of M4N with either etoposide or UCN-01 (FIG. 4C). […] On the contrary a great deal of caspase-7 cleavage product was detected in HepG2 cells treated with UCN-01 or the combination treatment of M4N with UCN-01 while a small amount of caspase-7 cleavage product was detected in the cells treated with etoposide or rapamycin regardless of a concomitant treatment with M4N (FIG. 4C).

CN[C@@H]1C[C@H]2O[C@@](C)([C@@H]1OC)n1c3ccccc3c3c4c(c5c6ccccc6n2c5c31)C(=O)N[C@H]4O [UCN-01, 7-hydroxystaurosporine]
caspase-7 cleavage [1]: detected | caspase-3 cleaved product [2]: small amount
